From ChEMBL document CHEMBL1153245, “A profile of the in vitro anti-tumor activity of imidazolium-based ionic liquids” (2010)

Tests used:
Assay type in all cases: functional
SN12C = test: Anticancer activity against human SN12C cells assessed cell growth at 10 uM after 48 hrs by sulforhodamine B assay relative to control
UO-31 = test: Anticancer activity against human UO31 cells assessed cell growth at 10 uM after 48 hrs by sulforhodamine B assay relative to control
PC-3 = test: Anticancer activity against human PC3 cells assessed cell growth at 10 uM after 48 hrs by sulforhodamine B assay relative to control
HL-60(TB) = test: Anticancer activity against human HL-60(TB) cells after 48 hrs by sulforhodamine B assay; conditions: Homo sapiens, HL-60, 48 h
K562 = test: Anticancer activity against human K562 cells after 48 hrs by sulforhodamine B assay; conditions: Homo sapiens, K562, 48 h
SR [1] = test: Anticancer activity against human SR cells after 48 hrs by sulforhodamine B assay; conditions: Homo sapiens, SR, 48 h
EKVX = test: Anticancer activity against human EKVX cells after 48 hrs by sulforhodamine B assay; conditions: Homo sapiens, EKVX, 48 h
HOP-62 = test: Anticancer activity against human HOP62 cells after 48 hrs by sulforhodamine B assay; conditions: Homo sapiens, HOP-62, 48 h
HOP-92 = test: Anticancer activity against human HOP92 cells after 48 hrs by sulforhodamine B assay; conditions: Homo sapiens, HOP-92, 48 h
NCI-H226 = test: Anticancer activity against human NCI-H226 cells after 48 hrs by sulforhodamine B assay; conditions: Homo sapiens, NCI-H226, 48 h
NCI-H23 [2] = test: Anticancer activity against human NCI-H23 cells after 48 hrs by sulforhodamine B assay; conditions: Homo sapiens, NCI-H23, 48 h
NCI-H322M = test: Anticancer activity against human NCI-H322M cells after 48 hrs by sulforhodamine B assay; conditions: Homo sapiens, NCI-H322M, 48 h
COLO 205 [3] = test: Anticancer activity against human COLO205 cells after 48 hrs by sulforhodamine B assay; conditions: Homo sapiens, COLO 205, 48 h
HCC 2998 = test: Anticancer activity against human HCC2998 cells after 48 hrs by sulforhodamine B assay; conditions: Homo sapiens, HCC 2998, 48 h
KM12 [4] = test: Anticancer activity against human KM12 cells after 48 hrs by sulforhodamine B assay; conditions: Homo sapiens, KM12, 48 h
SW-620 = test: Anticancer activity against human SW620 cells after 48 hrs by sulforhodamine B assay; conditions: Homo sapiens, SW-620, 48 h
SF-295 = test: Anticancer activity against human SF295 cells after 48 hrs by sulforhodamine B assay; conditions: Homo sapiens, SF-295, 48 h
SNB-75 = test: Anticancer activity against human SNB75 cells after 48 hrs by sulforhodamine B assay; conditions: Homo sapiens, SNB-75, 48 h
U-251 [5] = test: Anticancer activity against human U251 cells after 48 hrs by sulforhodamine B assay; conditions: Homo sapiens, U-251, 48 h
LOX IMVI = test: Anticancer activity against human LOXIMVI cells after 48 hrs by sulforhodamine B assay; conditions: Homo sapiens, LOX IMVI, 48 h
MOLT-4 = test: Anticancer activity against human MOLT4 cells assessed cell growth at 10 uM after 48 hrs by sulforhodamine B assay relative to control
SR [6] = test: Anticancer activity against human SR cells assessed cell growth at 10 uM after 48 hrs by sulforhodamine B assay relative to control
A549 = test: Anticancer activity against human A549 cells assessed cell growth at 10 uM after 48 hrs by sulforhodamine B assay relative to control
NCI-H23 [7] = test: Anticancer activity against human NCI-H23 cells assessed cell growth at 10 uM after 48 hrs by sulforhodamine B assay relative to control
COLO 205 [8] = test: Anticancer activity against human COLO205 cells assessed cell growth at 10 uM after 48 hrs by sulforhodamine B assay relative to control
HT-29 = test: Anticancer activity against human HT-29 cells assessed cell growth at 10 uM after 48 hrs by sulforhodamine B assay relative to control
KM12 [9] = test: Anticancer activity against human KM12 cells assessed cell growth at 10 uM after 48 hrs by sulforhodamine B assay relative to control
SF-268 = test: Anticancer activity against human SF268 cells assessed cell growth at 10 uM after 48 hrs by sulforhodamine B assay relative to control
U-251 [10] = test: Anticancer activity against human U251 cells assessed cell growth at 10 uM after 48 hrs by sulforhodamine B assay relative to control
OVCAR-5 = test: Anticancer activity against human OVCAR5 cells assessed cell growth at 10 uM after 48 hrs by sulforhodamine B assay relative to control
SK-OV-3 [11] = test: Anticancer activity against human SKOV3 cells assessed cell growth at 10 uM after 48 hrs by sulforhodamine B assay relative to control
SK-MEL-5 = test: Anticancer activity against human SK-MEL-5 cells after 48 hrs by sulforhodamine B assay; conditions: Homo sapiens, SK-MEL-5, 48 h
OVCAR-4 = test: Anticancer activity against human OVCAR4 cells after 48 hrs by sulforhodamine B assay; conditions: Homo sapiens, OVCAR-4, 48 h
OVCAR-8 = test: Anticancer activity against human OVCAR8 cells after 48 hrs by sulforhodamine B assay; conditions: Homo sapiens, OVCAR-8, 48 h
SK-OV-3 [12] = test: Anticancer activity against human SKOV3 cells after 48 hrs by sulforhodamine B assay; conditions: Homo sapiens, SK-OV-3, 48 h
A498 = test: Anticancer activity against human A498 cells after 48 hrs by sulforhodamine B assay; conditions: Homo sapiens, A498, 48 h
ACHN = test: Anticancer activity against human ACHN cells after 48 hrs by sulforhodamine B assay; conditions: Homo sapiens, ACHN, 48 h
MCF7 = test: Anticancer activity against human MCF7 cells after 48 hrs by sulforhodamine B assay; conditions: Homo sapiens, MCF7, 48 h
NCI/ADR-RES = test: Anticancer activity against human NCI/ADR-RES cells after 48 hrs by sulforhodamine B assay; conditions: Homo sapiens, NCI/ADR-RES, 48 h
T47D = test: Anticancer activity against human T47D cells after 48 hrs by sulforhodamine B assay; conditions: Homo sapiens, T47D, 48 h
MDA-MB-468 = test: Anticancer activity against human MDA-MB-468 cells after 48 hrs by sulforhodamine B assay; conditions: Homo sapiens, MDA-MB-468, 48 h
[13] = read-out: LC50 (the source's name)

CCCCCCCCCCCCCCCCCC[n+]1ccn(C)c1.FC(F)(F)C(F)(F)[P-](F)(F)(F)(C(F)(F)C(F)(F)F)C(F)(F)C(F)(F)F
Activity (SN12C): -75.69% | Activity (UO-31): -55.23% | Activity (PC-3): -57.75% | GI50 (HL-60(TB)): 0.238 µM | CC50 (HL-60(TB); [13]): > 100 µM | GI50 (K562): 0.238 µM | CC50 (K562; [13]): > 100 µM | GI50 (SR [1]): 3.37 µM | CC50 (SR [1]; [13]): > 100 µM | GI50 (EKVX): 0.346 µM | CC50 (EKVX; [13]): 8.91 µM | GI50 (HOP-62): 0.39 µM | CC50 (HOP-62; [13]): 6.09 µM | GI50 (HOP-92): 0.211 µM | CC50 (HOP-92; [13]): 22 µM | GI50 (NCI-H226): 0.435 µM | LC50 (NCI-H226): 8.23 µM | GI50 (NCI-H23 [2]): 0.224 µM | CC50 (NCI-H23 [2]; [13]): 12.7 µM | GI50 (NCI-H322M): 0.406 µM | LC50 (NCI-H322M): 5.54 µM | GI50 (COLO 205 [3]): 0.196 µM | CC50 (COLO 205 [3]; [13]): 0.778 µM | GI50 (HCC 2998): 0.271 µM | CC50 (HCC 2998; [13]): 25.5 µM | GI50 (KM12 [4]): 0.214 µM | CC50 (KM12 [4]; [13]): 0.929 µM | GI50 (SW-620): 0.328 µM | LC50 (SW-620): 3.74 µM | GI50 (SF-295): 0.275 µM | CC50 (SF-295; [13]): 5.77 µM | GI50 (SNB-75): 0.419 µM | CC50 (SNB-75; [13]): > 100 µM | GI50 (U-251 [5]): 0.322 µM | CC50 (U-251 [5]; [13]): 3.7 µM | GI50 (LOX IMVI): 0.164 µM | CC50 (LOX IMVI; [13]): 0.678 µM | Activity (MOLT-4): 17.16% | Activity (SR [6]): 24.53% | Activity (A549): -19.59% | Activity (NCI-H23 [7]): -62.26% | Activity (COLO 205 [8]): 5.01% | Activity (HT-29): -41.19% | Activity (KM12 [9]): -56.04% | Activity (SF-268): -47.08% | Activity (U-251 [10]): -39.24% | Activity (OVCAR-5): -56.76% | Activity (SK-OV-3 [11]): 10.45% | GI50 (SK-MEL-5): 0.313 µM | CC50 (SK-MEL-5; [13]): 3.31 µM | GI50 (OVCAR-4): 0.32 µM | CC50 (OVCAR-4; [13]): > 100 µM | GI50 (OVCAR-8): 0.491 µM | LC50 (OVCAR-8): > 100 µM | GI50 (SK-OV-3 [12]): 0.355 µM | CC50 (SK-OV-3 [12]; [13]): 3.83 µM | GI50 (A498): 0.371 µM | CC50 (A498; [13]): 3.39 µM | GI50 (ACHN): 0.281 µM | LC50 (ACHN): 3.55 µM | GI50 (MCF7): 0.309 µM | LC50 (50% cell kill) (MCF7): 4.69 µM | GI50 (NCI/ADR-RES): 0.412 µM | LC50 (NCI/ADR-RES): 12.5 µM | GI50 (T47D): 0.282 µM | CC50 (T47D; [13]): 63.7 µM | GI50 (MDA-MB-468): 0.173 µM | LC50 (MDA-MB-468): > 100 µM
